Data published in patent US11390621B2, “Chiral indole compounds and their use” (ARIAGEN, INC., priority 2019, dated 2022).
Several values for one entry are separate records, joined by “and”; a condition that tells them apart may be missing. Equal values may be shown once. Read-outs that look alike come from different tables or passages of the source. Marks after values point to notes of the source that are not given here.

Assays:
[1] = In vivo pharmacokinetic studies in mice; set-up: species or system Balb/C mice
Pan02 cancer cells = test: Pan02 subcutaneous syngeneic mouse tumor model (Example 48); type: in vivo, C57BL/6 mice; details: for TGI: IP; for tumor inhibition versus vehicle: Pan02 tumors
Method: This example describes in vivo studies that evaluated the anti-cancer efficacy of ARI-143, ARI-164, ARI-165, and ARI-186 in syngeneic mouse tumor models. Mice implanted subcutaneously with EMT-6 or Pan02 cancer cells were treated with ARI-143, ARI-164, ARI-165, ARI-186, or vehicle controls, as described below.
A monolayer culture of tumor cells was maintained in vitro in DMEM or RPMI1640 medium supplemented with 10% fetal bovine serum at 37° C. in an atmosphere of 5% CO2. Cells in exponential growth phase were harvested and quantitated by cell counter before tumor inoculation. The cell lines used are described in the table below.
Two subcutaneous syngeneic mouse tumor models were generated by innoculating female BALB/C or C57BL/6 mice with cancer cells at their right lower or front flank as detailed in the table below:
Each mouse was inoculated subcutaneously with tumor cells in 0.1 mL of PBS. Treatments were started when the mean tumor size reached approximately 80-120 mm^3 (around 100 mm^3). The administration of the test compounds and the animal number in each study group are shown in the study design. The date of tumor cell inoculation was denoted as day 0.
ARI-143, ARI-164, and ARI-165 were dissolved in DMSO at the final concentration of 26.7 mg/ml and stored at room temperature. In Pan02 studies of ARI-164 and ARI-186, both compounds were dissolved in 100% PEG400.
Randomization of animals was started when the mean tumor size reached approximately 90 mm^3 to form the mouse study groups. The randomization was-performed based on “Matched distribution” method using the multi-task method (StudyDirector™ software, version 3.1.399.19)/randomized block design. […]
After tumor cell inoculation, the mice were checked daily for morbidity and mortality. During routine monitoring, the mice were checked for tumor growth and any effects of the treatment on behavior such as mobility, food and water consumption, body weight gain/loss (body weights were measured twice per week after randomization), eye/hair matting, and any other abnormalities. Mortality and observed clinical signs were recorded for individual mice in detail.
Tumor volumes were measured twice per week in two dimensions using a caliper, and the volume was expressed in mm^3 using the formula: V=(L×W×W)/2, where V is tumor volume, L is tumor length (the longest tumor dimension) and W is tumor width (the longest tumor dimension perpendicular to L). Dosing as well as tumor and body weight measurements was conducted in a Laminar Flow Cabinet. The body weights and tumor volumes were measured by using StudyDirector™ software (version 3.1.399.19). Dosing Holiday
Tumor growth inhibition percentage (TGI %) is an indicator for antitumor activity of a drug compound, and expressed as: TGI(%)=100×(1−T/C), where T and C are the mean tumor volume (or weight) of the treated and control groups, respectively, on a given day. Statistical analysis of the difference in mean tumor volume (MTV) among the groups was conducted using the data collected on the day when the MTV of the vehicle group reached the humane endpoints, so that TGI could be derived for all or most mice enrolled in the study.

4T-1 = 4T-1 syngeneic mouse tumor model, ARI-164 / anti-PD-1 / combination (Example 49); type: in vivo; details: 4T-1 model
Method: (§1) In this example, the in vivo anti-tumor efficacy of a combination of ARI-164 with an anti-PD-1 antibody was evaluated using a panel of seven subcutaneous syngeneic mouse tumor models.
(§2) Seven subcutaneous syngeneic mouse tumor models were generated by innoculating female BALB/C or C57BL/6 mice with cancer cells at their right lower or right front flank followed by randomization as detailed in Table 10 below.
(§3) A solution of a rat monoclonal anti-mouse PD-1 antibody (isotype IgG2a, κ) at a concentration of 6.61 mg/ml was obtained from BioXcell (InVivoMAb anti-mouse PD-1 (CD279), Clone RMP1-14, Cat #BE0146)) and store at 4° C. The antibody solution was diluted with PBS to obtain a 1 mg/ml dosing solution.
(§4) ARI-164 powder was stored at −20° C. The powder of the compound was dissolved in DMSO to obtain dosing solutions at 26.7 mg/ml for administration to mice at 40 mg/kg, respectively.
Seven studies using the seven subcutaneous syngeneic mouse tumor models were performed. In each study, 80 mice were enrolled and randomly allocated to eight different study groups, with 10 mice in each study group. The mean tumor size at randomization was approximately 80-120 mm^3 (around 100 mm^3). Randomization was performed based on “Matched distribution” randomization method (StudyDirector™ software, version 3.1.399.19). […] All the drugs and vehicle controls were injected to the mice intraperitoneally.
(§5) The data was collected and analyzed as described above in Example 48.

LL/2 = LL/2 syngeneic mouse tumor model, ARI-164 / anti-PD-1 / combination (Example 49); type: in vivo
Method: as §1, §2, §3, §4
(§6) Seven studies using the seven subcutaneous syngeneic mouse tumor models were performed. In each study, 80 mice were enrolled and randomly allocated to eight different study groups, with 10 mice in each study group. The mean tumor size at randomization was approximately 80-120 mm^3 (around 100 mm^3). Randomization was performed based on “Matched distribution” randomization method (StudyDirector™ software, version 3.1.399.19). […]
as §5

EMT-6 = EMT-6 syngeneic mouse tumor model, ARI-164 / anti-PD-1 / combination (Example 49); type: in vivo; details: EMT-6 model
Method: as §1, §2, §3, §4, §6, §5

A20 = A20 syngeneic mouse tumor model, ARI-164 / anti-PD-1 / combination (Example 49); type: in vivo
Method: as §1, §2, §3, §4, §6, §5

Pan02 = Pan02 syngeneic mouse tumor model, ARI-164 / anti-PD-1 / combination (Example 49); type: in vivo
Method: as §1, §2, §3, §4, §6, §5

H22 = H22 syngeneic mouse tumor model, ARI-164 / anti-PD-1 / combination (Example 49); type: in vivo
Method: as §1, §2, §3, §4, §6, §5

[2] = Balb/C, mouse, plasma, mice, single 40 mg/kg oral dose
[3] = Balb/C, mouse, plasma, mice, read-out: half-life (converted)
[4] = mice, single 40 mg/kg oral dose
[5] = mouse, plasma, Balb/C mice, single dose IP 40 mg/kg
[6] = mouse, plasma, Balb/C mice, single dose IV 5 mg/kg
[7] = mouse, plasma, Balb/C mice, single dose PO 10 mg/kg
[8] = mouse, plasma, Balb/C mice, single dose PO 40 mg/kg
[9] = intraperitoneal, anti-PD-1 10 mg/kg BIW, ARI-164 40 mg/kg QD
[10] = Balb/C, mouse, plasma, mice, single 40 mg/kg oral dose, from mean profile
[11] = mice, single 40 mg/kg oral dose, Mean
[12] = mice, single 40 mg/kg oral dose, individual mouse (M1-M3), 40 mg/kg

## CC[C@H](N)c1csc(C(=O)c2c[nH]c3cc(F)ccc23)n1 [ARI-186, (S)-(4-(1-aminopropyl)thiazol-2-yl)(6-fluoro-1H-indol-3-yl)methanone]
[1]; Balb/C mice, single dose IP 40 mg/kg (value marked **)
  F*: 81.4** %
[1]; Balb/C mice, single dose PO 10 mg/kg
  F*: 63.0%
[1]; Balb/C mice, single dose PO 40 mg/kg (value marked **)
  F*: 75.7** %
[1]; [2]
  AUC: 73900 ng·h/mL
  bioavailability: 75.7%
[1]; [3]
  half-life: ~7.6 h
[1]; [4]
  improvement in AUC over ARI-164 (fold): 24.6 ×
  improvement in oral bioavailability over ARI-164 (fold): 5.0 ×
[1]; [5]
  Cmax: 6230 ng/mL
  MRT last: 11.2 h
  Tmax: 0.5 h
[1]; mouse, plasma, Balb/C mice, single dose IP 40 mg/kg, read-out: AUClast
  AUC(0-t): 79400 ng·h/mL
[1]; [6]
  Cmax: 2130 ng/mL
  MRT inf: 9.55 h
  MRT last: 6.99 h
  Tmax: 0.083 h
  clearance: 6.18 mL/min/kg
[1]; mouse, plasma, Balb/C mice, single dose IV 5 mg/kg, read-out: AUCinf
  AUC(0-inf): 13500 ng·h/mL
[1]; mouse, plasma, Balb/C mice, single dose IV 5 mg/kg, read-out: AUClast
  AUC(0-t): 12200 ng·h/mL
[1]; mouse, plasma, Balb/C mice, single dose IV 5 mg/kg, read-out: T1/2 (converted)
  half-life: 7.62 h
[1]; mouse, plasma, Balb/C mice, single dose IV 5 mg/kg, read-out: Vss
  Vd: 3.55 L/kg
[1]; [7]
  Cmax: 1380 ng/mL
  MRT inf: 8.21 h
  MRT last: 6.76 h
  Tmax: 2 h
[1]; mouse, plasma, Balb/C mice, single dose PO 10 mg/kg, read-out: AUCinf
  AUC(0-inf): 17000 ng·h/mL
[1]; mouse, plasma, Balb/C mice, single dose PO 10 mg/kg, read-out: AUClast
  AUC(0-t): 16100 ng·h/mL
[1]; mouse, plasma, Balb/C mice, single dose PO 10 mg/kg, read-out: T1/2 (converted)
  half-life: 5.56 h
[1]; [8]
  Cmax: 5000 ng/mL
  MRT last: 9.35 h
  Tmax: 2 h
[1]; mouse, plasma, Balb/C mice, single dose PO 40 mg/kg, read-out: AUClast
  AUC(0-t): 73900 ng·h/mL
Pan02 cancer cells; 20 mg/kg, study day 0
  TGI: −2.0%
Pan02 cancer cells; 20 mg/kg, study day 4
  TGI: −13.0%
Pan02 cancer cells; 20 mg/kg, study day 7
  TGI: −0.3%
Pan02 cancer cells; 20 mg/kg, study day 11
  TGI: 27.0%
Pan02 cancer cells; 20 mg/kg, study day 14
  TGI: 49.5%
Pan02 cancer cells; 20 mg/kg, study day 18
  TGI: 61.9%
Pan02 cancer cells; 20 mpk i.p. QD, study day 18
  tumor inhibition versus vehicle: 62%

## CC[C@H](O)c1csc(C(=O)c2c[nH]c3cc(F)ccc23)n1 [ARI-164, (S)-(6-Fluoro-1H-indol-3-yl)(4-(1-hydroxypropyl)thiazol-2-yl)methanone]
4T-1; ARI-164 alone, 40 mg/kg i.p.
  effect on tumor growth (in words): delay tumor growth
4T-1; combination with anti-PD-1 antibody, study day 31
  tumor growth inhibition (in words): statistically significant delta in tumor growth inhibition
4T-1; [9]
  TGI (%): 45.3%
LL/2; LL/2 model (FIG. 21F), combination with anti-PD-1 antibody, study day 32
  tumor inhibition (in words): tumor inhibition
LL/2; LL/2 model, intraperitoneal, anti-PD-1 10 mg/kg BIW, ARI-164 40 mg/kg QD
  TGI (%): 42.5%
EMT-6; combination with anti-PD-1 antibody, study day 30
  tumor inhibition (in words): significant tumor inhibition
EMT-6; [9]
  TGI (%): 57.2%
A20; combination with anti-PD-1 antibody, study day 28
  tumor inhibition (in words): significant tumor inhibition
A20; [9]
  TGI (%): 28.1%
[1]; [2]
  AUC: 3010 ng·h/mL
  bioavailability: 15.1%
[1]; [10]
  Cmax: 1870 ng/mL
  Tmax: 0.5 h
[1]; Balb/C, mouse, plasma, mice, single 40 mg/kg oral dose, from mean profile, read-out: AUC0-t
  AUC(0-t): 3010 ng·h/mL
[1]; Balb/C, mouse, plasma, mice, single 40 mg/kg oral dose, from mean profile, read-out: AUC0-∞
  AUC(0-inf): 3020 ng·h/mL
[1]; Balb/C, mouse, plasma, mice, single 40 mg/kg oral dose, from mean profile, read-out: t1/2 (converted)
  half-life: 1.4 h
[1]; [3]
  half-life: 1.4 h
[1]; [11]
  plasma concentration at 0.083 hr: 206.7
  plasma concentration at 0.25 hr: 1623
  plasma concentration at 0.5 hr: 1867
  plasma concentration at 1 hr: 1193
  plasma concentration at 2 hr: 506
  plasma concentration at 4 hr: 82.8
  plasma concentration at 8 hr: 7.1
  plasma concentration at 12 hr: 6.5
[1]; mice, single 40 mg/kg oral dose, individual mouse (M1-M3)
  plasma concentration at 24 hr: BLQ
[1]; [12]
  plasma concentration at 0.083 hr: 330 and 202 and 88
  plasma concentration at 0.25 hr: 1780 and 1740 and 1350
  plasma concentration at 0.5 hr: 1960 and 2020 and 1620
  plasma concentration at 1 hr: 1050 and 1600 and 930
  plasma concentration at 2 hr: 463 and 572 and 482
  plasma concentration at 4 hr: 101 and 79.3 and 68.2
  plasma concentration at 8 hr: 7.1 and BLQ (2×)
  plasma concentration at 12 hr: 7.5 and BLQ and 5.6
Pan02; combination with anti-PD-1 antibody, study day 55
  tumor inhibition (in words): increased tumor inhibition
Pan02; [9]
  TGI (%): 61.1%
H22; combination with anti-PD-1 antibody, study day 24
  tumor inhibition (in words): significant tumor inhibition
H22; [9]
  TGI (%): 46.9%
Pan02 cancer cells; 80 mg/kg, study day 0
  TGI: −0.6%
Pan02 cancer cells; 80 mg/kg, study day 4
  TGI: −4.4%
Pan02 cancer cells; 80 mg/kg, study day 7
  TGI: −8.4%
Pan02 cancer cells; 80 mg/kg, study day 11
  TGI: 26.6%
Pan02 cancer cells; 80 mg/kg, study day 14
  TGI: 40.6%
Pan02 cancer cells; 80 mg/kg, study day 18
  TGI: 35.3%
Pan02 cancer cells; 80 mpk i.p. QD, study day 18
  tumor inhibition versus vehicle: 35%
